{"source": "ChEMBL document CHEMBL1201862", "about": "“PubChem BioAssay data set” (2004)", "key": {"[1]": {"target": "T1, Type-1 angiotensin II receptor (Homo sapiens, UniProt P30556)", "T1 sequence (P30556 whole entry)": "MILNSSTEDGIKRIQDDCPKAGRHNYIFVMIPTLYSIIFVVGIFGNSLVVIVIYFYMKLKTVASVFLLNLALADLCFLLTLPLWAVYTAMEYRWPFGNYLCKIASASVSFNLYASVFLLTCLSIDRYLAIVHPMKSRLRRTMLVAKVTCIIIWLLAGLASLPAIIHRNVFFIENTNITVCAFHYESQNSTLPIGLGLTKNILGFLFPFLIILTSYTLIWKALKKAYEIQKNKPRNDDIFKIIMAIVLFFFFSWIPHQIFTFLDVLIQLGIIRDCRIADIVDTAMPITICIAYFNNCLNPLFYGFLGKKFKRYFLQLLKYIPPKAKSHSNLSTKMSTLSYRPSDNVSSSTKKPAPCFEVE", "test": "AT1 receptor agonists, dose response, selectivity assay for APJ receptor agonist project, cell-based, uHTS hits (AID 488865);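 also: beta-arrestin recruitment to AT1 measured by enzyme fragment complementation luminescence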", "type": "functional"}, "[2]": {"target": "T2, Ubiquitin-conjugating enzyme E2 N (Homo sapiens, UniProt P61088)", "T2 sequence (P61088 whole entry)": "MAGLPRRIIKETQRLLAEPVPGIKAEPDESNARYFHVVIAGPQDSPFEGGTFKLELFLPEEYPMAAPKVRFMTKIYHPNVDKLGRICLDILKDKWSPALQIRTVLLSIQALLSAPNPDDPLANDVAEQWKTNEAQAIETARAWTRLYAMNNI", "type": "functional"}, "[3]": {"target": "T3, Bcl-2-related protein A1 (Mus musculus, UniProt Q07440)", "T3 sequence (Q07440 whole entry)": "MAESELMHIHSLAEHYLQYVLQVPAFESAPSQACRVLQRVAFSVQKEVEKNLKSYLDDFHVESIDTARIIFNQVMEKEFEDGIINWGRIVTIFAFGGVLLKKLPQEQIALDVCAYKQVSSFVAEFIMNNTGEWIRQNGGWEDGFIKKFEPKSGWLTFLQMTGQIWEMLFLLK", "type": "functional"}, "[4]": {"target": "T2, Ubiquitin-conjugating enzyme E2 N", "type": "functional", "remark": "listed apart in the source"}, "[5]": {"target": "Lysine-specific demethylase 4C (Homo sapiens, UniProt Q9H3R0)", "sequence (Q9H3R0 whole entry)": "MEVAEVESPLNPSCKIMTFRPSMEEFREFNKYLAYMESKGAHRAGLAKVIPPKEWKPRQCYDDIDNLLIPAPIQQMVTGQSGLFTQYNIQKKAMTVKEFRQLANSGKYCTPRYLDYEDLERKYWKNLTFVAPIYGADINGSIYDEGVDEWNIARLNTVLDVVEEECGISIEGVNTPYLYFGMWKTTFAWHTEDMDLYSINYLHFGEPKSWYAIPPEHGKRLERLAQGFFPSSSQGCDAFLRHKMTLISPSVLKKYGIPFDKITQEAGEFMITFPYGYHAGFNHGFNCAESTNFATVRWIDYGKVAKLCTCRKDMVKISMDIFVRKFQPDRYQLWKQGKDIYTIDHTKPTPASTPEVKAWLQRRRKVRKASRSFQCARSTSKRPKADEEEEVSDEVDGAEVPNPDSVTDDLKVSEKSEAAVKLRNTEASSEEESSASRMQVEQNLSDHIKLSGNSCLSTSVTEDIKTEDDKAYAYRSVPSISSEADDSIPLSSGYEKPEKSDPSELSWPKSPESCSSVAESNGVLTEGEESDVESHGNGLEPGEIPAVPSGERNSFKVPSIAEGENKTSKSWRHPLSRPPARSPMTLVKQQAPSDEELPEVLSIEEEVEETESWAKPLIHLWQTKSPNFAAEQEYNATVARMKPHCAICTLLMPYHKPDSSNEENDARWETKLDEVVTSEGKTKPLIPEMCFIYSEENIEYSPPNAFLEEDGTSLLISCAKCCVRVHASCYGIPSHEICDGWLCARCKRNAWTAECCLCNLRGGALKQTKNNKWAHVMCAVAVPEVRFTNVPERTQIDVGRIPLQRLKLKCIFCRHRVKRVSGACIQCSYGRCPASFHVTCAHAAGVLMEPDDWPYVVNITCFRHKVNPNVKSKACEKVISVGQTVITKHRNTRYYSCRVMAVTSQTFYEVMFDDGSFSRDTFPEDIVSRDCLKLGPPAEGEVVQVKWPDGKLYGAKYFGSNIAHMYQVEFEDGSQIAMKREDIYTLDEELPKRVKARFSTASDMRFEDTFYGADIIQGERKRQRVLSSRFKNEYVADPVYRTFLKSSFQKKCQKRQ", "test": "GASC-1 (JMJD2C) histone demethylase inhibitors, dose response, biochemical, DELFIA europium, cherry-picked samples (AID 488835)", "type": "functional"}, "[6]": {"target": "T4, Endoribonuclease toxin MazF (Escherichia coli K-12, UniProt P0AE70)", "T4 sequence (P0AE70 whole entry)": "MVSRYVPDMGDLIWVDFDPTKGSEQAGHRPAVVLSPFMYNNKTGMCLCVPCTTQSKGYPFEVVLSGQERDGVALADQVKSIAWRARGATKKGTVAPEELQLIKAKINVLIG", "test": "fluorescent RNA oligo signal without MazF, dose response, counter-screen for MazEF activator project, biochemical, fluorescence, single-stranded RNase substrate (AID 588502)", "type": "functional"}, "[7]": {"target": "T4, Endoribonuclease toxin MazF", "test": "MazF toxin RNase activators, dose response, biochemical, fluorescence, single-stranded RNA substrate, uHTS hits (AID 588481)", "type": "functional"}, "[8]": {"test": "CEM21 lymphoblast cell cytotoxicity, dose response, cytotoxicity control for viral fusion inhibitor project, CellTiter-Glo luminescence, cherry-picked (AID 652042);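 also: potency for signal decrease meaning cytotoxicity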", "type": "functional, cell-based"}, "[9]": {"test": "control 3'UTR Renilla luciferase suppression, dose response, counter-screen for Shn3 inhibitor project, cell-based, Clone20-Shn3RL, cherry-picked (AID 624133)", "type": "functional"}, "[10]": {"test": "inhibitors of HIV Env-driven cell fusion, dose response, cherry-pick (AID 652057)", "type": "functional, cell-based"}, "[11]": {"test_system": "BJ", "test": "cytotoxicity toward Ras-transformed BJeLR fibroblasts, dose response, cell-based, alamar blue fluorescence, cherrypicked samples (AID 2631);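 also: confirmatory dose-response assay in RAS-dependent BJ fibroblasts engineered with TERT, LT and ST, with cytotoxicity read by fluorescence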", "type": "functional", "conditions": "Homo sapiens"}, "[12]": {"test_system": "BJ", "test": "cells", "type": "functional, cell-based", "conditions": "Homo sapiens"}, "[13]": {"test": "cytotoxicity toward DRD oncogenic fibroblasts, dose response, cell-based, non-viral oncogenic, luminescence (AID 1934)", "type": "functional", "conditions": "Homo sapiens"}, "[14]": {"test": "reduction of Shn3 3'UTR firefly luciferase signal, dose response, Schnurri-3 inhibitor project, cell-based, Clone20 osteoblasts, cherry-pick, set 2 (AID 720490)", "type": "functional"}, "[15]": {"test": "inhibitors of clade B AD8 Env fusion, dose response, cell-based, cherry-pick (AID 652062);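 also: potency is for inhibitors of fusion seen as a drop in luminescence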", "type": "functional"}, "[16]": {"test": "HepG2 cell cytotoxicity, dose response, cytotoxicity control for Shn3 inhibitor project, CellTiter-Glo, cherry-picked (AID 624134)", "type": "functional, cell-based"}, "[17]": {"target": "Luciferin 4-monooxygenase (Photinus pyralis, UniProt P08659)", "sequence (P08659 whole entry)": "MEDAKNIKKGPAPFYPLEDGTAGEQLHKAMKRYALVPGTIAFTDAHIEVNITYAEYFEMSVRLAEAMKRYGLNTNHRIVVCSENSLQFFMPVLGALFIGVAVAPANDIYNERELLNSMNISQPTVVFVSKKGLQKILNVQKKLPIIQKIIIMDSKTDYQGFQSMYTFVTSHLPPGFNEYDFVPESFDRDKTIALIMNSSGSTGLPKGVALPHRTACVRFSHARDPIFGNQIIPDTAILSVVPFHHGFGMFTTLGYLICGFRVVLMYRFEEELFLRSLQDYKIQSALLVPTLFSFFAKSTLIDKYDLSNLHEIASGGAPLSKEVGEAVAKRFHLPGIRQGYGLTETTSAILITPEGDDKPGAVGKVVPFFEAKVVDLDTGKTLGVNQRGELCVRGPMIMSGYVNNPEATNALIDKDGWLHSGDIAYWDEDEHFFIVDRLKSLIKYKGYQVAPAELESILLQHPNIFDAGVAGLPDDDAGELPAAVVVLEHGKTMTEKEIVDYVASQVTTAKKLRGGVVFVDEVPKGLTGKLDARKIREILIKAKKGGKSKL", "test": "firefly luciferase enzyme inhibitors, dose response, biochemical, luminescence (AID 1891)"}, "[18]": {"test": "Shn3 3'UTR reporter inhibitors, dose response, cell-based, Clone20 osteoblasts, firefly luciferase, cherry-picked (AID 624132)", "type": "functional"}, "[19]": {"test": "Luminescence Cell-Based Dose Confirmation HTS to Identify Inhibitors of Platelet Dense Granule Release. [Related pubchem assays: 1663 (Primary HTS), 1678 (Summary of Project)]", "type": "functional"}, "[20]": {"test": "ZM109 Env clade C HIV-1 fusion inhibitors, dose response, HeLa effector, CEM target cells, luciferase, cherry-pick (AID 652058)", "type": "functional, cell-based"}, "[21]": {"test_system": "Jurkat", "test": "antigen receptor-induced NF-kB inhibitors, dose response, Jurkat, luciferase reporter, luminescence, B- and T-cell (AID 489004);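 also: NF-kB luciferase reporter Jurkat cells stimulated with PMA plus ionomycin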", "type": "functional, cell-based", "conditions": "Homo sapiens"}, "[22]": {"test": "off-target signal loss in HeLa-CEM21 co-culture – HeLa F-luc CTL cells, cherry-picked, counter-screen for HIV-1 Env fusion inhibitor project, dose response (AID 652040);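 also: potency for signal decrease marking cytotoxic or nonspecific inhibition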", "type": "functional, cell-based"}, "[23]": {"test": "Luminescence-based counterscreen assay for KLF5 inhibitors: dose response cell-based high throughput screening assay to identify cytotoxic compounds using the IEC-6 intestinal epithelial cell line. [Related pubchem assays: 1700 (Primary screen.), 1834 (Confirmation screen.), 1858 (Summary AID.), 1905 (Counterscreen.)]", "type": "functional"}, "[24]": {"test_system": "BJ", "test": "cytotoxicity toward BJ-TERT-LT-ST fibroblasts, dose response, cell-based, RAS-independent, luminescence (AID 1935);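 also: BJ fibroblasts immortalized with TERT plus LT and ST oncogenes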", "type": "functional", "conditions": "Homo sapiens"}, "[25]": {"test": "A Cell Based Secondary Assay To Explore Cytotoxicity of Compounds that Sensitize Mycobacterium Tuberculosis to Beta-Lactam Antibiotics.", "type": "functional"}, "[26]": {"test": "cytotoxicity in HEK-293T NF-kB-Luc cells, dose response, cytotoxicity control for B/T-cell NF-kB inhibitor project, cell-based, uHTS hits (AID 489019);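 also: IC50 reflects cytotoxicity as loss of cell viability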", "type": "functional"}, "[27]": {"target": "SUMO E1/E2 (Homo sapiens, UniProt P63279+Q9UBE0+Q9UBT2)", "sequence (Q9UBE0 whole entry)": "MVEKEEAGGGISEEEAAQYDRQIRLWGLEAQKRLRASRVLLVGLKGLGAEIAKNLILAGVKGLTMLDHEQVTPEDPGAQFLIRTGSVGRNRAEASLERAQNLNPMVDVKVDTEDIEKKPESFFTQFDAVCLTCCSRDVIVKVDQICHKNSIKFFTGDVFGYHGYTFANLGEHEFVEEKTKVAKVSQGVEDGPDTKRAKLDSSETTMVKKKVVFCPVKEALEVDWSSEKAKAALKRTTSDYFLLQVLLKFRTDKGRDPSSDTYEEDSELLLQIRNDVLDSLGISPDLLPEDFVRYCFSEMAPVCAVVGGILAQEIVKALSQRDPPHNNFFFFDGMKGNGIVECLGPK", "sequence (Q9UBT2 whole entry)": "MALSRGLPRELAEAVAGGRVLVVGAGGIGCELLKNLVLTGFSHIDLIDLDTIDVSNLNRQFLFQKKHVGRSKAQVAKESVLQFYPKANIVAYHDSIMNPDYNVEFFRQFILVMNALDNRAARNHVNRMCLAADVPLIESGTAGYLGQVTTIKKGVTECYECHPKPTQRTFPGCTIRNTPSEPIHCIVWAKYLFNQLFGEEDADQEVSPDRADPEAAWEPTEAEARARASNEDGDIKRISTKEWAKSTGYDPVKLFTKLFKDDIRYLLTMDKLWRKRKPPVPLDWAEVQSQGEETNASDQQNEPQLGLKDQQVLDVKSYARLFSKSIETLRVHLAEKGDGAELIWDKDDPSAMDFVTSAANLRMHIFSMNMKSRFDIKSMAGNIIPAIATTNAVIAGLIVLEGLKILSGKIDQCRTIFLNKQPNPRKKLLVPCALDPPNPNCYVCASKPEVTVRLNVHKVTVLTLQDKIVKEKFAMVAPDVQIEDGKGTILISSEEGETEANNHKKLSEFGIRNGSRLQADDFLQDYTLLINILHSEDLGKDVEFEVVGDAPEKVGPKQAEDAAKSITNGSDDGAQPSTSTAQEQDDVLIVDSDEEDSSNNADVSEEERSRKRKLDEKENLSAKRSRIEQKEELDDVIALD", "sequence (P63279 whole entry)": "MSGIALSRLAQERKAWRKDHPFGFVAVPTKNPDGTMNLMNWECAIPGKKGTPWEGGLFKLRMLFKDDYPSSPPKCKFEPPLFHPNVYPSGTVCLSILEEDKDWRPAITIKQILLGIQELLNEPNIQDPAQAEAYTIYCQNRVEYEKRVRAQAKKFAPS", "test": "SAR analysis of SUMOylation using HTRF in an in-Vitro dose response assay. [Related pubchem assays (depositor defined):AID2006, AID2011, AID2018, AID2069, AID2658]", "type": "functional"}, "[28]": {"target": "Trypsin (Sus scrofa, UniProt P00761)", "sequence (P00761 whole entry)": "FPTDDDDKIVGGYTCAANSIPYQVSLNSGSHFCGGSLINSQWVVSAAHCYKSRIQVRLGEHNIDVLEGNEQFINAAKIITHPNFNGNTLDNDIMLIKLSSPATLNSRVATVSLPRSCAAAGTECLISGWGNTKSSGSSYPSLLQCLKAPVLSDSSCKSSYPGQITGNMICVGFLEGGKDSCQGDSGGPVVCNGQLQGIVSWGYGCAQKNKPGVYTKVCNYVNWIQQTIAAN", "test": "porcine trypsin inhibitors, dose response, selectivity assay for Rce1 protease inhibitor project, biochemical, quenched peptide fluorescence, cherry-pick (AID 488789)"}, "[29]": {"test_system": "Streptococcus", "test": "Group A Streptococcus viability loss, dose response, counter-screen for streptokinase expression inhibitor project, luminescence, BacTiterGlo (AID 1915);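 also: potency for reduction of bacterial viability or growth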", "type": "functional, organism-based"}, "[30]": {"target": "CAAX prenyl protease 1 (Saccharomyces cerevisiae S288c, UniProt P47154)", "sequence (P47154 whole entry)": "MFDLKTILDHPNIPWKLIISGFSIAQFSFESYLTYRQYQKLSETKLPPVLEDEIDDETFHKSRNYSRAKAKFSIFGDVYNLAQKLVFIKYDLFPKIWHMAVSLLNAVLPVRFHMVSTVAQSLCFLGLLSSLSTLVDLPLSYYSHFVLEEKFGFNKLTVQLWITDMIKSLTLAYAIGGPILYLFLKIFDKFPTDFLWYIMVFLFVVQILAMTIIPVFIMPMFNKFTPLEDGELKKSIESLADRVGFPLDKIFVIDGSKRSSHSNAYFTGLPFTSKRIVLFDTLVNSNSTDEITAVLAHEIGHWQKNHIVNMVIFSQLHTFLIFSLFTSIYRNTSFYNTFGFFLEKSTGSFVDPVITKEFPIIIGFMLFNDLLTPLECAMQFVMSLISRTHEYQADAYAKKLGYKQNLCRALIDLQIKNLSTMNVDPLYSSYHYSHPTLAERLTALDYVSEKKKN", "test": "Ste24 protease inhibitors, dose response, biochemical, S. cerevisiae, plate reader, cherry-pick (AID 488815)"}, "[31]": {"test_system": "Streptococcus sp. 'group A'", "test": "growth inhibition of control SK(-) GAS strain, dose response, counter-screen for streptokinase expression inhibitor project, luminescence, kanamycin, BacTiterGlo, confirmation (AID 1900)", "type": "functional, organism-based"}}, "note": "The source made the active and inactive calls."}
{"smiles": "CCOc1cccc2sc(N(CCCN(C)C)C(=O)c3ccc(S(=O)(=O)N(C)Cc4ccccc4)cc3)nc12", "values": [{"measurement": "EC50", "setting": "[1]", "result": "> 100 µM (inactive)"}, {"measurement": "IC50", "setting": "[2]", "result": "8.12 µM (active)"}, {"measurement": "IC50", "setting": "[3]", "result": "> 20 µM (inactive)"}, {"measurement": "IC50", "setting": "[4]", "result": "8.54 µM (active)"}]}
{"smiles": "CC1(C)OC(c2ccccc2)=C/C(=C/C=C2C(=O)NC(=S)NC2=O)O1", "values": [{"measurement": "AC50", "setting": "[5]", "result": "11.6 µM (active)"}, {"measurement": "EC50", "setting": "[6]", "result": "13.9 µM (active)"}, {"measurement": "EC50", "setting": "[7]", "result": "11 µM (active)"}]}
{"smiles": "COc1ccc(C(=O)Nc2nc3ccccc3s2)c(OC)c1", "values": [{"measurement": "AC50", "setting": "[8]", "result": "14.2 µM (active)"}, {"measurement": "AC50", "setting": "[9]", "result": "43.8 µM (active)"}, {"measurement": "AC50", "setting": "[10]", "result": "0.757 µM (active)"}, {"measurement": "EC50", "setting": "[11]", "result": "> 133 µM (inactive)"}, {"measurement": "EC50", "setting": "[12]", "result": "5.76 µM (active)"}, {"measurement": "EC50", "setting": "[13]", "result": "7.2 µM (active)"}, {"measurement": "AC50", "setting": "[14]", "result": "0.45 µM (active)"}, {"measurement": "AC50", "setting": "[15]", "result": "0.664 µM (active)"}, {"measurement": "AC50", "setting": "[16]", "result": "33.5 µM (active)"}, {"measurement": "EC50", "setting": "[17]", "result": "0.241 µM (active)"}, {"measurement": "AC50", "setting": "[18]", "result": "0.523 µM (active)"}, {"measurement": "EC50", "setting": "[19]", "result": "1.54 µM (active)"}, {"measurement": "AC50", "setting": "[20]", "result": "6.04 µM (active)"}, {"measurement": "IC50", "setting": "[21]", "result": "< 0.16 µM (active)"}, {"measurement": "AC50", "setting": "[22]", "result": "< 0.26 µM (active)"}, {"measurement": "IC50", "setting": "[23]", "result": "7.69 µM (active)"}, {"measurement": "EC50", "setting": "[24]", "result": "17.1 µM (active)"}, {"measurement": "CC50", "setting": "[25]", "result": "29.7 µM (active)"}, {"measurement": "IC50", "setting": "[26]", "result": "> 80 µM (inactive)"}]}
{"smiles": "COc1ccc(CNC(=O)COC(=O)c2cc(-c3cccs3)nc3ccccc23)cc1", "values": [{"measurement": "IC50", "setting": "[27]", "result": "43.3 µM (active)"}]}
{"smiles": "CC1COc2c(N3CCN(C)CC3)c(F)cc3c(=O)c(C(=O)O)cn1c23", "note": "(stereo unspecified) [OFLOXACIN]", "values": [{"measurement": "AC50", "setting": "[28]", "result": "9.26 µM (active)"}, {"measurement": "EC50", "setting": "[29]", "result": "4.11 µM (active)"}, {"measurement": "AC50", "setting": "[30]", "result": "1.95 µM (active)"}, {"measurement": "EC50", "setting": "[31]", "result": "3.03 µM (active)"}]}
